Assay results published in patent US20160271263A1 (Novo Nordisk A/S, priority 2010, published 2016).
Numbered stars: 1 amine (or outer) side, 2 acyl side, 3 side chain; on linkers, the order of the positions; unused ones are H or OH. Square brackets hold non-standard residues; d marks the D form. Side chains are listed from the residue outwards. Peptide text beside a SMILES is read from it. * marks the point of attachment. C18 diacid = O=C(O)CCCCCCCCCCCCCCCCC(=O)*; γGlu = O=C(O)[C@H](CCC(=O)[*:2])N[*:1]; AEEA = NCCOCCOCC(=O)O; Aib = CC(C)(N)C(=O)O

Target: glucagon receptor (Homo sapiens, UniProt P47871)
Assay: cell-based

Chain of glucagon receptor (P47871 26-477): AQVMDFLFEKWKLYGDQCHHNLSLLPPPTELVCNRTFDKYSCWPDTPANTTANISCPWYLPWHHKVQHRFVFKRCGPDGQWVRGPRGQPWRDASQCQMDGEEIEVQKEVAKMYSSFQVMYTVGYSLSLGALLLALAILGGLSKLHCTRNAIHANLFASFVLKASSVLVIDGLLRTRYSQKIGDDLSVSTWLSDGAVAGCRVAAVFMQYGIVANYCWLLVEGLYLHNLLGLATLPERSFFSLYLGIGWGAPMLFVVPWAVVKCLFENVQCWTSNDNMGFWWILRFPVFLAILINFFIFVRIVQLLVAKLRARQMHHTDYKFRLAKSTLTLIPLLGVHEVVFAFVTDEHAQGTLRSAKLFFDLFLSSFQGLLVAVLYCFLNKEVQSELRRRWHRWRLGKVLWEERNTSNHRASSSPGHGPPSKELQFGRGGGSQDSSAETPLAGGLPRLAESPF

Row | SMILES | EC50
1 | CC(C)C[C@H](NC(=O)[C@H](Cc1ccc(O)cc1)NC(=O)[C@H](CCCCN)NC(=O)[C@H](CO)NC(=O)[C@H](Cc1ccc(O)cc1)NC(=O)[C@H](CC(=O)O)NC(=O)[C@H](CO)NC(=O)[C@@H](NC(=O)[C@H](Cc1ccccc1)NC(=O)[C@@H](NC(=O)CNC(=O)[C@H](CCC(N)=O)NC(=O)C(C)(C)NC(=O)[C@@H](N)Cc1c[nH]cn1)[C@@H](C)O)[C@@H](C)O)C(=O)N[C@@H](CC(=O)O)C(=O)N[C@@H](CCCCNC(=O)COCCOCCNC(=O)COCCOCCNC(=O)CC[C@H](NC(=O)CCCCCCCCCCCCCCCCC(=O)O)C(=O)O)C(=O)N[C@@H](CCCCN)C(=O)N[C@@H](CCCNC(=N)N)C(=O)N[C@@H](C)C(=O)N[C@@H](CCC(N)=O)C(=O)N[C@@H](CCC(=O)O)C(=O)N[C@@H](Cc1ccccc1)C(=O)N[C@H](C(=O)N[C@@H](CCC(N)=O)C(=O)N[C@@H](Cc1c[nH]c2ccccc12)C(=O)N[C@@H](CC(C)C)C(=O)N[C@@H](CC(C)C)C(=O)N[C@@H](CC(N)=O)C(=O)N[C@H](C(N)=O)[C@@H](C)O)C(C)C [Example 39, N^ε16-([2-[2-[2-[[2-[2-[2-[[(4S)-5-hydroxy-4-[(18-hydroxy-18-oxooctadecanoyl)amino]-5-oxopentanoyl]amino]ethoxy]ethoxy]acetyl]amino]ethoxy]ethoxy]acetyl]) [Aib^2, Lys^16, Lys^17, Glu^21,Leu^27] Glucagon peptide amide] (H-H[Aib]QGTFTSDYSKYLDK([AEEA-AEEA-γGlu-C18 diacid])KRAQEFVQWLLNT-NH2; N-terminus assumed) | 7 pM
2 | CC(C)C[C@H](NC(=O)[C@H](Cc1ccc(O)cc1)NC(=O)[C@H](CCCCN)NC(=O)[C@H](CO)NC(=O)[C@H](Cc1ccc(O)cc1)NC(=O)[C@H](CC(=O)O)NC(=O)[C@H](CO)NC(=O)[C@@H](NC(=O)[C@H](Cc1ccccc1)NC(=O)[C@@H](NC(=O)CNC(=O)[C@H](CCC(N)=O)NC(=O)[C@H](CO)NC(=O)[C@@H](N)Cc1c[nH]cn1)[C@@H](C)O)[C@@H](C)O)C(=O)N[C@@H](CC(=O)O)C(=O)N[C@@H](CO)C(=O)N[C@@H](CCCCN)C(=O)N[C@@H](CCCNC(=N)N)C(=O)N[C@@H](C)C(=O)N[C@@H](CCC(N)=O)C(=O)N[C@@H](CCC(=O)O)C(=O)N[C@@H](Cc1ccccc1)C(=O)N[C@H](C(=O)N[C@@H](CCCCNC(=O)COCCOCCNC(=O)COCCOCCNC(=O)CC[C@H](NC(=O)CCCCCCCCCCCCCCCCC(=O)O)C(=O)O)C(=O)N[C@@H](Cc1c[nH]c2ccccc12)C(=O)N[C@@H](CC(C)C)C(=O)N[C@@H](CC(C)C)C(=O)N[C@@H](CO)C(=O)N[C@H](C(N)=O)[C@@H](C)O)C(C)C [Example 40, N^ε24-([2-[2-[2-[[2-[2-[2-[[(4S)-5-hydroxy-4-[(18-hydroxy-18-oxooctadecanoyl)amino]-5-oxopentanoyl]amino]ethoxy]ethoxy]acetyl]amino]ethoxy]ethoxy]acetyl]) [Lys^17, Glu^21,Lys^24,Leu^27,Ser^28]Glucagon peptide amide] (H-HSQGTFTSDYSKYLDSKRAQEFVK([AEEA-AEEA-γGlu-C18 diacid])WLLST-NH2; N-terminus assumed) | 7 pM
3 | CC(C)C[C@H](NC(=O)[C@H](Cc1ccc(O)cc1)NC(=O)[C@H](CCCCN)NC(=O)[C@H](CO)NC(=O)[C@H](Cc1ccc(O)cc1)NC(=O)[C@H](CC(=O)O)NC(=O)[C@H](CO)NC(=O)[C@@H](NC(=O)[C@H](Cc1ccccc1)NC(=O)[C@@H](NC(=O)CNC(=O)[C@H](CCC(N)=O)NC(=O)[C@H](CO)NC(=O)[C@@H](N)Cc1c[nH]cn1)[C@@H](C)O)[C@@H](C)O)C(=O)N[C@@H](CC(=O)O)C(=O)N[C@@H](CO)C(=O)N[C@@H](CCCCN)C(=O)N[C@@H](CCCNC(=N)N)C(=O)N[C@@H](C)C(=O)N[C@@H](CCC(N)=O)C(=O)N[C@@H](CCC(=O)O)C(=O)N[C@@H](Cc1ccccc1)C(=O)N[C@H](C(=O)N[C@@H](CCC(N)=O)C(=O)N[C@@H](Cc1c[nH]c2ccccc12)C(=O)N[C@@H](CC(C)C)C(=O)N[C@@H](CC(C)C)C(=O)N[C@@H](CC(N)=O)C(=O)N[C@H](C(=O)N[C@@H](CCCCNC(=O)COCCOCCNC(=O)COCCOCCNC(=O)CC[C@H](NC(=O)CCCCCCCCCCCCCCCCC(=O)O)C(=O)O)C(N)=O)[C@@H](C)O)C(C)C [Example 42, N^α-([Lys^17, Glu^21, Leu^27] Glucagonyl) N^ε-([2-[2-[2-[[2-[2-[2-[[(4S)-5-hydroxy-4-[(18-hydroxy-18-oxooctadecanoyl)amino]-5-oxopentanoyl]amino]ethoxy]ethoxy]acetyl]amino]ethoxy]ethoxy]acetyl]) Lysinyl amide] (H-HSQGTFTSDYSKYLDSKRAQEFVQWLLNTK([AEEA-AEEA-γGlu-C18 diacid])-NH2; N-terminus assumed) | 17 pM
4 | CC(C)C[C@H](NC(=O)[C@H](Cc1ccc(O)cc1)NC(=O)[C@H](CCCCN)NC(=O)[C@H](CO)NC(=O)[C@H](Cc1ccc(O)cc1)NC(=O)[C@H](CC(=O)O)NC(=O)[C@H](CO)NC(=O)[C@@H](NC(=O)[C@H](Cc1ccccc1)NC(=O)[C@@H](NC(=O)CNC(=O)[C@H](CCC(N)=O)NC(=O)[C@H](CO)NC(=O)[C@@H](N)Cc1c[nH]cn1)[C@@H](C)O)[C@@H](C)O)C(=O)N[C@@H](CC(=O)O)C(=O)N[C@@H](CO)C(=O)N[C@@H](CCCCN)C(=O)N[C@@H](CCCNC(=N)N)C(=O)N[C@@H](C)C(=O)N[C@@H](CCC(N)=O)C(=O)N[C@@H](CCC(=O)O)C(=O)N[C@@H](Cc1ccccc1)C(=O)N[C@H](C(=O)N[C@@H](CCC(N)=O)C(=O)N[C@@H](CCCCNC(=O)COCCOCCNC(=O)COCCOCCNC(=O)CC[C@H](NC(=O)CCCCCCCCCCCCCCCCC(=O)O)C(=O)O)C(=O)N[C@@H](CC(C)C)C(=O)N[C@@H](CC(C)C)C(=O)N[C@@H](CC(N)=O)C(=O)N[C@H](C(N)=O)[C@@H](C)O)C(C)C [Example 44, N^ε25 ([2-[2-[2-[[2-[2-[2-[[(4S)-5-hydroxy-4-[(18-hydroxy-18-oxooctadecanoyl)amino]-5-oxopentanoyl]amino]ethoxy]ethoxy]acetyl]amino]ethoxy]ethoxy]acetyl]) [Lys^17, Glu^21, Lys^25 Leu^27] Glucagon peptide amide] (H-HSQGTFTSDYSKYLDSKRAQEFVQK([AEEA-AEEA-γGlu-C18 diacid])LLNT-NH2; N-terminus assumed) | 12 pM

The remaining molecules from weak to strong by EC50, led by results:

Row | EC50 | SMILES
5 | 7 pM | CC(C)C[C@H](NC(=O)[C@H](Cc1ccc(O)cc1)NC(=O)[C@H](CCCCN)NC(=O)[C@H](CO)NC(=O)[C@H](Cc1ccc(O)cc1)NC(=O)[C@H](CC(=O)O)NC(=O)[C@H](CO)NC(=O)[C@@H](NC(=O)[C@H](Cc1ccccc1)NC(=O)[C@@H](NC(=O)CNC(=O)[C@H](CCC(N)=O)NC(=O)[C@H](CO)NC(=O)[C@@H](N)Cc1c[nH]cn1)[C@@H](C)O)[C@@H](C)O)C(=O)N[C@@H](CC(=O)O)C(=O)N[C@@H](CO)C(=O)N[C@@H](CCCCN)C(=O)N[C@@H](CCCNC(=N)N)C(=O)N[C@@H](C)C(=O)N[C@@H](CCC(N)=O)C(=O)N[C@@H](CCC(=O)O)C(=O)N[C@@H](Cc1ccccc1)C(=O)N[C@H](C(=O)N[C@@H](CCC(N)=O)C(=O)N[C@@H](Cc1c[nH]c2ccccc12)C(=O)N[C@@H](CC(C)C)C(=O)N[C@@H](CCCCNC(=O)COCCOCCNC(=O)COCCOCCNC(=O)CC[C@H](NC(=O)CCCCCCCCCCCCCCCCC(=O)O)C(=O)O)C(=O)N[C@@H](CC(N)=O)C(=O)N[C@H](C(N)=O)[C@@H](C)O)C(C)C [Example 45, N^ε27 ([2-[2-[2-[[2-[2-[2-[[(4S)-5-hydroxy-4-[(18-hydroxy-18-oxooctadecanoyl)amino]-5-oxopentanoyl]amino]ethoxy]ethoxy]acetyl]amino]ethoxy]ethoxy]acetyl]) [Lys^17, Glu^21, Lys^27] Glucagon peptide amide] (H-HSQGTFTSDYSKYLDSKRAQEFVQWLK([AEEA-AEEA-γGlu-C18 diacid])NT-NH2; N-terminus assumed)
6 | 3 pM | CC(C)C[C@H](NC(=O)[C@H](Cc1ccc(O)cc1)NC(=O)[C@H](CCCCN)NC(=O)[C@H](CO)NC(=O)[C@H](Cc1ccc(O)cc1)NC(=O)[C@H](CC(=O)O)NC(=O)[C@H](CO)NC(=O)[C@@H](NC(=O)[C@H](Cc1ccccc1)NC(=O)[C@@H](NC(=O)CNC(=O)[C@H](CCC(N)=O)NC(=O)[C@H](CO)NC(=O)[C@@H](N)Cc1c[nH]cn1)[C@@H](C)O)[C@@H](C)O)C(=O)N[C@@H](CC(=O)O)C(=O)N[C@@H](CO)C(=O)N[C@@H](CCCCN)C(=O)N[C@@H](CCCNC(=N)N)C(=O)N[C@@H](C)C(=O)N[C@@H](CCC(N)=O)C(=O)N[C@@H](CCC(=O)O)C(=O)N[C@@H](Cc1ccccc1)C(=O)N[C@H](C(=O)N[C@@H](CCCCNC(=O)COCCOCCNC(=O)COCCOCCNC(=O)CC[C@H](NC(=O)CCCCCCCCCCCCCCCCC(=O)O)C(=O)O)C(=O)N[C@@H](Cc1c[nH]c2ccccc12)C(=O)N[C@@H](CC(C)C)C(=O)N[C@@H](CC(C)C)C(=O)N[C@@H](CCC(=O)O)C(=O)N[C@H](C(N)=O)[C@@H](C)O)C(C)C [Example 41, N^ε24-([2-[2-[2-[[2-[2-[2-[[(4S)-5-hydroxy-4-[(18-hydroxy-18-oxooctadecanoyl)amino]-5-oxopentanoyl]amino]ethoxy]ethoxy]acetyl]amino]ethoxy]ethoxy]acetyl])[Lys^17, Glu^21,Lys^24,Leu^27,Glu^28,]Glucagon peptide amide] (H-HSQGTFTSDYSKYLDSKRAQEFVK([AEEA-AEEA-γGlu-C18 diacid])WLLET-NH2; N-terminus assumed)
